Assay results from patent US12581252B2, “Substituted pyrrolo[3,4-b]pyridines as PI3K-α inhibitors” (Relay Therapeutics, Inc., priority 2020, dated 2026).

These compounds were tested against H1047R PIK3CA enzyme (Homo sapiens, UniProt P42336, H1047R) (assay: ADP-Glo Biochemical PIK3CA Kinase Assay).
H1047R PIK3CA enzyme, sequence (P42336 whole entry H1047R): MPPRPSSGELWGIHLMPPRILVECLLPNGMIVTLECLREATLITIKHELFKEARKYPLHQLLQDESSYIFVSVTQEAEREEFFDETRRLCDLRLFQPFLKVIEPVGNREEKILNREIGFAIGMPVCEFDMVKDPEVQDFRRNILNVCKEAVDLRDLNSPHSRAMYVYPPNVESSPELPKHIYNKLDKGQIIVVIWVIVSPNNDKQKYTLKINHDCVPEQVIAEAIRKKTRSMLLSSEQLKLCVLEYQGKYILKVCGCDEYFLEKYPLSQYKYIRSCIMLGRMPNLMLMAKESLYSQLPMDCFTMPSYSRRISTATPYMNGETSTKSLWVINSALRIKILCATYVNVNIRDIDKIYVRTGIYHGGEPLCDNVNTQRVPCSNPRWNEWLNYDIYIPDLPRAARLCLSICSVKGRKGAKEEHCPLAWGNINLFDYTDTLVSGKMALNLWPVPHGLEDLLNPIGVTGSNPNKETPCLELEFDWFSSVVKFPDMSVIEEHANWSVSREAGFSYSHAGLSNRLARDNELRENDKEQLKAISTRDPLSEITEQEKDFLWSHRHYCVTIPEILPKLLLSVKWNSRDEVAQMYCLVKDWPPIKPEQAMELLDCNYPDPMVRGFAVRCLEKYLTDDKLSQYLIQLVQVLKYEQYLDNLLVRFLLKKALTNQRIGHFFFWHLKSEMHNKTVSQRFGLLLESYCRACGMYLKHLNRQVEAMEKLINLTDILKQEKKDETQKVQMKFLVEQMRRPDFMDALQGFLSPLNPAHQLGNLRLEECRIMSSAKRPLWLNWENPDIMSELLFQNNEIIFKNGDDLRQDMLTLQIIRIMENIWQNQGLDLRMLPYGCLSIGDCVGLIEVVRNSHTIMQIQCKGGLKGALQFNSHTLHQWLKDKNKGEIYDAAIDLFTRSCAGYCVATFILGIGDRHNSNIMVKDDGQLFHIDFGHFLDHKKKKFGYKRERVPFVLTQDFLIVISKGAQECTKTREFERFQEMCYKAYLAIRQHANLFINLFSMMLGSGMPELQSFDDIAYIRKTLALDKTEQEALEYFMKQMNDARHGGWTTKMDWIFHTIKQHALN
H1047R PIK3CA enzyme, sequence (P27986 whole entry partner): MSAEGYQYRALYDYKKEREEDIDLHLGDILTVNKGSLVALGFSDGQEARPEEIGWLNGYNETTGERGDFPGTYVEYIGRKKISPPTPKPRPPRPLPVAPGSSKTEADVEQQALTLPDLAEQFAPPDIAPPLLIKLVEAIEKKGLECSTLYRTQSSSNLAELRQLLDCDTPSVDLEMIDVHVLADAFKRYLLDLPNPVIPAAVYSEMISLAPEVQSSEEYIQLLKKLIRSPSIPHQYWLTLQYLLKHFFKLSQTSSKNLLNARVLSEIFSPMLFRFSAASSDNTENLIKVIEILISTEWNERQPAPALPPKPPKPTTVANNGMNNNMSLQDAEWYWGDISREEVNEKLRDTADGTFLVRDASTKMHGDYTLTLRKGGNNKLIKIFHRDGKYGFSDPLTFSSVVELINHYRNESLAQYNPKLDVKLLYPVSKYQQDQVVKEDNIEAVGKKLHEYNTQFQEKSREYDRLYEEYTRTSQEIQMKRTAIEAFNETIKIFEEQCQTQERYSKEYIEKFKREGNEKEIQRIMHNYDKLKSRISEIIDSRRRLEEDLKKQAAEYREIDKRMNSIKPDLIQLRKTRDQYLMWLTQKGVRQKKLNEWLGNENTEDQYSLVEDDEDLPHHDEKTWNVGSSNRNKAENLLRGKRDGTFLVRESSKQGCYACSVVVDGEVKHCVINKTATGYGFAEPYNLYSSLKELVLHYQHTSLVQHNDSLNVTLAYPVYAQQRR

| SMILES | IC50 [µM] |
| --- | --- |
| O=C(Nc1cccc2c1C(CO)NC2=O)c1cc(F)cc(C(F)(F)F)c1 (stereo not drawn) [Compound I-1666] | 10 to 100 |
| Nc1cc(-c2ccc3ncnn3c2)cc2c1C(c1cc(F)ccc1Cl)NC2=O (stereo not drawn) [Compound I-1671] | 10 to 100 |
| O=C1NC(C2CCCCC2)c2c(NC(=O)c3nsc4ccccc34)cccc21 (stereo not drawn) [Compound I-204, N-(3-Cyclohexyl-1-oxoisoindolin-4-yl)benzo[d]isothiazole-3-carboxamide] | 0.1 to 0.5 |
| O=C(Nc1cc(OCC(O)CCO)cc2c1C(c1cc(F)ccc1Cl)NC2=O)c1cc(F)cc(C(F)(F)F)c1 (stereo not drawn) [Compound I-1414] | ≤ 0.1 |
| O=C(Nc1cc(O[C@H]2CC[C@H]2O)cc2c1C(c1cc(F)ccc1Cl)NC2=O)c1cc(F)cc(C(F)(F)F)c1 (mixture of isomers) [Compound I-1210] | ≤ 0.1 |
| O=C1NC(c2cc(F)ccc2Cl)c2c(NC(=O)c3nsc(Cl)c3Cl)cc(Br)cc21 (stereo not drawn) [Compound I-1426] | 1 to 10 |
| O=C1N[C@@H](c2cc(F)ccc2Cl)c2c(NC(=O)N3CC[C@H]4CCCC[C@H]43)cccc21 [Compound I-2422] | 1 to 10 |
| [2H]c1nc2ccc(-c3cc(NC(=O)c4cc(F)cc(C(F)(F)F)c4)c4c(c3)C(=O)NC4c3cc(F)ccc3Cl)cn2n1 (stereo not drawn) [Compound I-1589] | ≤ 0.1 |
| O=C1N[C@H](c2cc(F)ccc2Cl)c2c(NC(=O)N3C[C@@H](C(F)F)c4ccccc43)cccc21 (single isomer, unassigned) [Compound I-2331] | 1 to 10 |
| C[C@H]([C@H]1C[C@H](O)CN1C(=O)Nc1cccc2c1[C@H](c1cc(F)ccc1Cl)NC2=O)C(F)(F)F (single isomer, unassigned) [Compound I-2379] | 10 to 100 |
| O=C1N[C@H](c2cccc(F)c2F)c2c(NC(=O)c3csc4ccccc34)ccnc21 [Compound I-23] | 1 to 10 |
| O=C(Nc1cc(Br)cc2c1C(c1cc(Cl)ccc1Cl)NC2=O)c1cc(F)cc(C(F)(F)F)c1 (stereo not drawn) [Compound I-763] | ≤ 0.1 |
| O=C1Cc2cc(-c3cc(NC(=O)c4cc(F)cc(C(F)(F)F)c4)c4c(c3)C(=O)NC4c3cc(F)ccc3Cl)ccc2N1 (stereo not drawn) [Compound I-1041] | ≤ 0.1 |
| CC(C)(O)COc1cc(NC(=O)c2cc(F)cc(C(F)(F)F)c2)c2c(c1)C(=O)N[C@@H]2c1cc(F)ccc1Cl [Compound I-739] | 1 to 10 |
| C[C@@]1(O)CN(C(=O)Nc2cccc3c2[C@H](c2cc(F)ccc2Cl)NC3=O)c2ccccc21 (single isomer, unassigned) [Compound I-2206] | 10 to 100 |
| O=C(Nc1cc(CC(O)CO)cc2c1C(c1cc(F)ccc1Cl)NC2=O)c1cc(F)cc(C(F)(F)F)c1 (stereo not drawn) [Compound I-1376] | ≤ 0.1 |
| CC(C)(C)N[C@@H]1NC(=O)c2cccc(NC(=O)c3cc(F)cc(C(F)(F)F)c3)c21 (single isomer, unassigned) [Compound I-2247] | 10 to 100 |
| [2H]C([2H])(c1cc(NC(=O)c2cc(F)cc(C(F)(F)F)c2)c2c(c1)C(=O)NC2c1cc(F)ccc1Cl)S(C)(=O)=O (stereo not drawn) [Compound I-1551] | ≤ 0.1 |
| O=C1NC(c2cc(F)ccc2Cl)c2c(NC(=O)C3CCNCC3)cc(-c3ccc4ncnn4c3)cc21 (stereo not drawn) [Compound I-1751] | 10 to 100 |
| CC(C)(CN)n1cc(-c2cc(NC(=O)N3C[C@](O)(C(F)(F)F)c4cc(F)ccc43)c3c(c2)C(=O)N[C@H]3c2cc(F)ccc2Cl)cn1 (single isomer, unassigned) [Compound I-2652] | 1 to 10 |
| O=C(Nc1cccc2c1C(C(=O)N1CCCCC1)NC2=O)c1cc(F)cc(C(F)(F)F)c1 (stereo not drawn) [Compound I-2041] | 10 to 100 |
| Cc1ccccc1C1NC(=O)c2cccc(NC(=O)c3cc(F)cc(C(F)(F)F)c3)c21 (stereo not drawn) [Compound I-2] | 0.1 to 0.5 |

| SMILES | IC50 [µM] |
| --- | --- |
| COc1cc(C(=O)Nc2cccc3c2C(c2ccccc2C)NC3=O)cc(F)c1F (stereo not drawn) [Compound I-317] | 0.5 to 1 |
| O=C(Nc1cc(Br)cc2c1[C@@H](c1cc(F)ccc1F)NC2=O)c1cc(F)cc(C(F)(F)F)c1 [Compound I-671] | 1 to 10 |
| O=C1NC(c2cc(F)ccc2Cl)c2c(NC(=O)N3CCOC(C(F)(F)F)C3)cc(Br)cc21 (stereo not drawn) [Compound I-1810] | 1 to 10 |
| O=C(Nc1cc(Br)c(Cl)c2c1C(c1cc(F)ccc1Cl)NC2=O)c1cc(F)cc(C(F)(F)F)c1 (stereo not drawn) [Compound I-847] | ≤ 0.1 |
| O=C(Nc1cc(-c2ccc3ncnn3c2)cc2c1[C@H](c1cc(F)ccc1Cl)NC2=O)c1cccc(C(F)(F)F)c1 (stereo in doubt) [Compound I-1121] | ≤ 0.1 |
| Cc1ccccc1C1NCCc2cccc(NC(=O)c3cc(F)cc(C(F)(F)F)c3)c21 (stereo not drawn) [Compound I-1962] | 10 to 100 |
| O=C1N[C@H](c2cc(F)ccc2Cl)c2c(NC(=O)c3csc4ccccc34)cc(-c3ccc4ncnn4c3)cc21 [Compound I-1685] | 1 to 10 |
| O=C(Nc1cc(Br)cc2c1C(c1cc(F)ccc1Cl)NC2=O)c1cccc(C(F)F)c1 (stereo not drawn) [Compound I-570] | 1 to 10 |
| CC(C)(O)C12CC(C(=O)Nc3cccc4c3C(c3cc(F)ccc3Cl)NC4=O)(C1)C2 (stereo not drawn) [Compound I-2117] | 10 to 100 |
| O=C1NC(c2cc(F)ccc2Cl)c2c(Nc3cccc(=O)[nH]3)cc(Br)cc21 (stereo not drawn) [Compound I-1974] | 1 to 10 |
| COc1cccc(C(=O)Nc2cc(Br)cc3c2C(c2cc(F)ccc2Cl)NC3=O)c1 (stereo not drawn) [Compound I-469] | 10 to 100 |
| O=C1NC(c2cc(F)ccc2Cl)c2c(N/C(=N\O)c3cc(F)cc(C(F)(F)F)c3)cccc21 (stereo not drawn) [Compound I-1100] | ≤ 0.1 |
| Cn1ccc(Nc2cc(NC(=O)c3cc(F)cc(C(F)(F)F)c3)c3c(c2)C(=O)N[C@@H]3c2cc(F)ccc2Cl)n1 [Compound I-1072] | 0.5 to 1 |
| O=C(Nc1cc(N2CCCC2=O)cc2c1C(c1cc(F)ccc1Cl)NC2=O)c1cc(F)cc(C(F)(F)F)c1 (stereo not drawn) [Compound I-1273] | ≤ 0.1 |
| Cc1ccccc1C1NC(=O)c2c(CO)ccc(NC(=O)c3csc4ccccc34)c21 (stereo not drawn) [Compound I-224] | ≤ 0.1 |
| O=C(Nc1cccc2c1C(C1CCC1)NC2=O)c1cc(F)cc(C(F)(F)F)c1 (stereo not drawn) [Compound I-1731] | 10 to 100 |
| O=C(Nc1cccc2c1C(C1CCCOC1)NC2=O)c1cc(F)cc(C(F)(F)F)c1 (racemic) [Compound I-1958] | 10 to 100 |
| Cc1ccccc1C1NC(=O)c2cccc(NC(=O)c3nn(C)c4ccccc34)c21 (stereo not drawn) [Compound I-17] | 10 to 100 |
| CS(=O)(=O)c1ccc(-c2cc(NC(=O)c3cc(F)cc(C(F)(F)F)c3)c3c(c2)C(=O)NC3c2cc(F)ccc2Cl)cn1 (stereo not drawn) [Compound I-1455] | ≤ 0.1 |
| O=C1NC(c2cc(F)ccc2Cl)c2c(NC(=O)N3CCCC(F)(F)C3)cc(Br)cc21 (stereo not drawn) [Compound I-544] | 1 to 10 |
| O=C(Nc1cc(-c2ccc3ncc(C(F)F)n3c2)cc2c1[C@@H](c1cc(F)ccc1Cl)NC2=O)c1cc(F)cc(C(F)(F)F)c1 [Compound I-1936] | 0.5 to 1 |
| O=C(Nc1cc(Br)cc2c1[C@@H](c1ccccc1C(F)F)NC2=O)c1cc(F)cc(C(F)(F)F)c1 [Compound I-790] | 1 to 10 |

| SMILES | IC50 [µM] |
| --- | --- |
| Cc1ccccc1C1NC(=O)c2cccc(NC(=O)c3c[nH]c(=O)c(F)c3)c21 (stereo not drawn) [Compound I-86] | 10 to 100 |
| O=C(Nc1cc(-c2cncnc2)cc2c1[C@@H](c1cc(F)ccc1Cl)NC2=O)c1cc(F)cc(C(F)(F)F)c1 [Compound I-1094] | 0.5 to 1 |
| Cn1ccc(-c2cc(NC(=O)c3cc(F)cc(Cl)c3)c3c(n2)C(=O)NC3c2cc(F)ccc2Cl)cc1=O (stereo not drawn) [Compound I-499] | 0.1 to 0.5 |
| CN1C[C@@H](COc2cc(NC(=O)c3cc(F)cc(C(F)(F)F)c3)c3c(c2)C(=O)N[C@H]3c2cc(F)ccc2Cl)CC1=O (single isomer, unassigned) [Compound I-1524] | 10 to 100 |
| CC(C)n1cc(-c2cc(NC(=O)c3cc(F)cc(C(F)(F)F)c3)c3c(n2)C(=O)N[C@H]3c2cc(F)ccc2Cl)ccc1=O [Compound I-651] | ≤ 0.1 |
| O=C1NC(c2cc(F)ccc2Cl)c2c(NC(=O)C3CCCOC3)cc(-c3ccc4ncnn4c3)cc21 (stereo not drawn) [Compound I-1814] | 10 to 100 |
| N#Cc1cccc(S(=O)(=O)Cc2cc(NC(=O)c3cc(F)cc(C(F)(F)F)c3)c3c(c2)C(=O)N[C@@H]3c2cc(F)ccc2Cl)c1 [Compound I-1595] | 1 to 10 |
| CC(=O)N1CC(c2cc(NC(=O)c3cc(F)cc(C(F)(F)F)c3)c3c(c2)C(=O)NC3c2cc(F)ccc2Cl)C1 (stereo not drawn) [Compound I-655] | ≤ 0.1 |
| CC(C)(O)c1cc(NC(=O)N2CCc3ccccc32)c2c(c1)C(=O)N[C@@H]2c1cc(F)ccc1Cl [Compound I-714] | 10 to 100 |
| CC(C)(O)c1cc(NC(=O)c2cc(F)cc(C(F)(F)F)c2)c2c(c1)C(=O)N[C@@H]2c1cc(F)ccc1C(F)F [Compound I-263] | 10 to 100 |
| O=C(Nc1cc(-c2cnc(-n3cccn3)nc2)cc2c1C(c1cc(F)ccc1Cl)NC2=O)c1cc(F)cc(C(F)(F)F)c1 (stereo not drawn) [Compound I-1483] | ≤ 0.1 |
| NC(=O)Cn1nc(Nc2cc(-c3ccc4ncnn4c3)cc3c2C(c2cc(F)ccc2Cl)NC3=O)c2ccccc21 (stereo not drawn) [Compound I-1806] | 1 to 10 |
| O=C1NC(c2cc(F)ccc2Cl)c2c(NC(=O)n3nc(O)c4ccccc43)cccc21 (stereo not drawn) [Compound I-2315] | 1 to 10 |
| O=C1NC(c2cc(F)ccc2Cl)c2c(Cn3ccccc3=O)cc(-c3ccc4ncnn4c3)cc21 (stereo not drawn) [Compound I-1980] | 10 to 100 |
| O=C(Nc1cc(-c2cnn(-c3nccs3)c2)cc2c1C(c1cc(F)ccc1Cl)NC2=O)c1cc(F)cc(C(F)(F)F)c1 (stereo not drawn) [Compound I-1572] | ≤ 0.1 |
| O=C(Nc1cc(-c2ccn3nncc3c2)cc2c1C(c1cc(F)ccc1Cl)NC2=O)c1cc(F)cc(C(F)(F)F)c1 (stereo not drawn) [Compound I-1670] | ≤ 0.1 |
| O=C(Nc1cc(Br)cc2c1C(c1cc(F)ccc1Cl)NC2=O)c1cc(F)cc(Cl)c1Cl (stereo not drawn) [Compound I-816] | 0.1 to 0.5 |
| Cc1ccccc1C1NC(=O)c2cccc(NC(=O)c3cc(C(F)(F)F)ccc3F)c21 (stereo not drawn) [Compound I-369] | 1 to 10 |
| CN1C(=O)NC(c2cc(F)ccc2Cl)c2c(NC(=O)c3cc(F)cc(C(F)(F)F)c3)cccc21 (stereo not drawn) [Compound I-1951] | 1 to 10 |
| O=C(Nc1cccc2c1[C@@H](C1CCC[C@H](O)C1)NC2=O)c1cc(F)cc(C(F)(F)F)c1 (single isomer, unassigned) [Compound I-2225] | 10 to 100 |
| CCCNc1cc(NC(=O)c2cc(F)cc(C(F)(F)F)c2)c2c(n1)C(=O)NC2c1cc(F)ccc1Cl (stereo not drawn) [Compound I-319] | ≤ 0.1 |
| Cc1ccccc1C1NC(=O)c2nccc(NC(=O)N3CCc4cnccc43)c21 (stereo not drawn) [Compound I-248] | 10 to 100 |
